Earlier results as cited in US20230089681A1, “USE OF A COMBINATION OF SULFICANT COMPOUNDS WITH A LIQUID CARRIER AS A SELF EMULSIFYING DRUG DELIVERY SYSTEM” (priority 2021, published 2023).
Where two headings read alike, the source gives them in different places.

In the case of `COc1ccc2cc3[n+](cc2c1OC)CCc1cc2c(cc1-3)OCO2` [Berberine], the absorption (oral, in capsule form taken with water) is given as 0.306% and the absorption (traditional oral administration) is given as 0.36%.
